Laboratory results reported in ChEMBL document CHEMBL1201862, “PubChem BioAssay data set” (2004).
Activity calls are given as the source filed them.

Columns and labels:
Fatty acid synthase [1] = target: T1, Fatty acid synthase (Homo sapiens, UniProt P49327); assay: inhibition of human FAS-TE enzyme activity – biochemical, kinetic fluorescence intensity, dose response (AID 624326); type: functional;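 also: rate of fluorescence rise from hydrolysis of a fluorogenic O-methyl fluorescein ester substrate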
T1 sequence (P49327 whole entry): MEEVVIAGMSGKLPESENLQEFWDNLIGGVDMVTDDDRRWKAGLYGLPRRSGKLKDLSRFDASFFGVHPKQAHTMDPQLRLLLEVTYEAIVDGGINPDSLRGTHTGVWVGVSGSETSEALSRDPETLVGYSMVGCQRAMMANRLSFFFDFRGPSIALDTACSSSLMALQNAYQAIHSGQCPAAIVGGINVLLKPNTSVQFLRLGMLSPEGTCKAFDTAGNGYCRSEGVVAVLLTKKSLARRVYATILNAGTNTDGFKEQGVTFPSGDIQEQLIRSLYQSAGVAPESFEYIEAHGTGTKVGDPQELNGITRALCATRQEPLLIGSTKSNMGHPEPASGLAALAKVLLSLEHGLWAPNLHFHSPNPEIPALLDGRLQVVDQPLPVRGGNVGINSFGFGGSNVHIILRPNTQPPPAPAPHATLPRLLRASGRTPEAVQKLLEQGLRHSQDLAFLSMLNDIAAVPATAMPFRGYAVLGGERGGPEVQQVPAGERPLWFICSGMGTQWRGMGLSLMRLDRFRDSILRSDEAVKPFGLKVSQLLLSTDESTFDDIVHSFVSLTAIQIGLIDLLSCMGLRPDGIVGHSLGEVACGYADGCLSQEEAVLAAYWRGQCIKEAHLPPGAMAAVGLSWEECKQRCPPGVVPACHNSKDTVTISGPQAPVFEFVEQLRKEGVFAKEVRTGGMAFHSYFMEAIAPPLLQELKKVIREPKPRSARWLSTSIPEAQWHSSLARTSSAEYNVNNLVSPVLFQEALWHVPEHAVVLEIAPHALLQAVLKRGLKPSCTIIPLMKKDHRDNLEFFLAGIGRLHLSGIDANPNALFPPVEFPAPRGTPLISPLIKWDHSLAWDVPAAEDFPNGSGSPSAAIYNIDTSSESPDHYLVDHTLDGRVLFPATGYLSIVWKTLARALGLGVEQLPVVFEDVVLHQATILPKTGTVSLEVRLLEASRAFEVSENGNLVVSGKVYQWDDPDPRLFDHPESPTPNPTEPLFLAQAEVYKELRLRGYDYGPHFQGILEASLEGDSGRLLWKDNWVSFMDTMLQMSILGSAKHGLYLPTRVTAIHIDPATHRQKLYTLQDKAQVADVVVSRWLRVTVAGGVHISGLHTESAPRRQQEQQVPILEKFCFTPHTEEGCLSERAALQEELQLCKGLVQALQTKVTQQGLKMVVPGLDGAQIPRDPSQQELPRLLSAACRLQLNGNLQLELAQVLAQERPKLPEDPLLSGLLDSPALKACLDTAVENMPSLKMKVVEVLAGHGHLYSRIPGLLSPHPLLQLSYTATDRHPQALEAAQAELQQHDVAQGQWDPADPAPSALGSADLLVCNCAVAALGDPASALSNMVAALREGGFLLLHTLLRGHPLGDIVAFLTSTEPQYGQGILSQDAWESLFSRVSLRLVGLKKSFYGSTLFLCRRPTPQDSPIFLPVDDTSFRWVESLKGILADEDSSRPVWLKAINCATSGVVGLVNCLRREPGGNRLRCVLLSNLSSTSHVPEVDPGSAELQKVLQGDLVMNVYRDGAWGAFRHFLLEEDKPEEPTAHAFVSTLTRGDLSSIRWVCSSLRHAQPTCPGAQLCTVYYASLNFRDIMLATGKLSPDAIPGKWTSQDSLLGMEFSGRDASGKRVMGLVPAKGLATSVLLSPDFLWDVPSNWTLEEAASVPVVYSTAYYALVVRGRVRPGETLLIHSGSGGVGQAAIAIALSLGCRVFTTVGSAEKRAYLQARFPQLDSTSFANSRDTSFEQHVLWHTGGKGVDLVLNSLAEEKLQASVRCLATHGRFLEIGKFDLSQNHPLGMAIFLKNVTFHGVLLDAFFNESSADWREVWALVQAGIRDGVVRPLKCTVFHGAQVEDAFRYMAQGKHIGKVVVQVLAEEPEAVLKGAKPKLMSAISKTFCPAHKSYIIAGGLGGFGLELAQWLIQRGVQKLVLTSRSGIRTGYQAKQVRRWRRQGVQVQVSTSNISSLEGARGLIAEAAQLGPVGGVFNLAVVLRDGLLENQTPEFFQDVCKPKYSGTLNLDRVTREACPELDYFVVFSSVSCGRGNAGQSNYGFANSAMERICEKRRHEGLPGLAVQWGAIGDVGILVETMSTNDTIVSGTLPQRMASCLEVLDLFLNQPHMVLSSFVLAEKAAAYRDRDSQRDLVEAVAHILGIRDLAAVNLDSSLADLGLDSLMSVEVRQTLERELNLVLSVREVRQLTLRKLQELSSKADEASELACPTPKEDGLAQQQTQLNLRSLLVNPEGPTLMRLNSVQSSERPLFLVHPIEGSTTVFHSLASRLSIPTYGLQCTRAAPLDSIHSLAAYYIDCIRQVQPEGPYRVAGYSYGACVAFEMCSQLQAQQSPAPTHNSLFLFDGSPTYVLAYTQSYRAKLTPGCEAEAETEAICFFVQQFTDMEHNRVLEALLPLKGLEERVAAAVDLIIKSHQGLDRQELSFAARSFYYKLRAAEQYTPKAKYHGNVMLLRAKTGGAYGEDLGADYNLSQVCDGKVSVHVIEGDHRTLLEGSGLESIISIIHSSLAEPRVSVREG

Fatty acid synthase [2] = target: T1, Fatty acid synthase; assay: inhibition of human FAS-TE enzyme activity – biochemical, endpoint fluorescence intensity, uHTS hits, dose response (AID 624327); type: functional;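 also: fluorescence from hydrolysis of an O-methyl fluorescein acyl ester substrate by the enzyme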
[3] = Vero E6 cell cytotoxicity, dose response, cytotoxicity control for non-replicating M. tuberculosis project, secondary assay (AID 492998); type: functional, VeroE6; conditions: Vero C1008
cells = type: functional
Vero = assay: viability of Vero cells under compound – cytotoxicity control for flavivirus capping enzyme inhibitors (AID 588742); type: functional; conditions: Chlorocebus sabaeus
[4] = microbe, parasite or virus in culture; type: functional; conditions: Mycobacterium tuberculosis
[5] = THP-1 cell cytotoxicity, dose response, cytotoxicity control for non-replicating M. tuberculosis project (AID 489025); type: functional
[6] = HepG2 cell cytotoxicity, dose response, cytotoxicity control for non-replicating M. tuberculosis project (AID 489018); type: functional; conditions: Mycobacterium tuberculosis
[7] = HEK-293T viability loss after treatment – luminescence, T-cell screen hits, cytotoxicity control for TCR NF-kB inhibitor project, dose response (AID 489026); type: functional, cell-based;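 also: cells exposed to compound about 14 hours before the viability readout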
[8] = HIV-1 AD8 envelope cell-cell fusion blockers – cherry-pick, dose response (AID 652062); type: functional, cell-based;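 also: luciferase signal from cell-cell fusion driven by HIV-1 clade B AD8 Env; potency is for inhibitors of fusion seen as a drop in luminescence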
[9] = target: T2, Carboxy-terminal domain RNA polymerase II polypeptide A small phosphatase 1 (Homo sapiens, UniProt Q9GZU7); assay: CTDSP1 inhibitors, concentration-response, biochemical, absorbance readout, ultra-high-throughput screen actives (AID 540297); type: functional
T2 sequence (Q9GZU7 whole entry): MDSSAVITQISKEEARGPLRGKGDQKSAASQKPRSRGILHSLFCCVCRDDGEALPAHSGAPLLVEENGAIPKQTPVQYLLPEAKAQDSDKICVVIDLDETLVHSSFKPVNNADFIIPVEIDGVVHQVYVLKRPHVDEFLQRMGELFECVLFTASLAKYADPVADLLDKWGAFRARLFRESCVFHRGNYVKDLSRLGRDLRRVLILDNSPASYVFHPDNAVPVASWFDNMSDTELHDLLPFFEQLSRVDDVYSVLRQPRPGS

[10] = target: Eukaryotic translation initiation factor 4E (Mus musculus, UniProt P63073); assay: blockers of eIF4G binding by eIF4E – biochemical, TR-FRET, dose response (AID 855); type: functional;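 also: potency for disrupting eIF4E binding to eIF4GI seen as loss of FRET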
Eukaryotic translation initiation factor 4E, sequence (P63073 whole entry): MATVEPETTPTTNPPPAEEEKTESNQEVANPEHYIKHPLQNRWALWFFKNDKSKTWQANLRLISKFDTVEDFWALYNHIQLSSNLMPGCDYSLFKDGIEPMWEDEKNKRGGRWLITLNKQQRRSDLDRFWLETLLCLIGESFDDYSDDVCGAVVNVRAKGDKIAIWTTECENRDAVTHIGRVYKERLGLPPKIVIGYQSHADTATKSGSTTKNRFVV

SN12K1 = assay: cells; type: functional; conditions: Homo sapiens
P388 = assay: cells; type: functional; conditions: Mus musculus
P388/ADR = assay: cells; type: functional; conditions: Mus musculus
Protein skinhead-1 = target: T3, Protein skinhead-1 (Caenorhabditis elegans, UniProt P34707); type: functional
T3 sequence (P34707 whole entry): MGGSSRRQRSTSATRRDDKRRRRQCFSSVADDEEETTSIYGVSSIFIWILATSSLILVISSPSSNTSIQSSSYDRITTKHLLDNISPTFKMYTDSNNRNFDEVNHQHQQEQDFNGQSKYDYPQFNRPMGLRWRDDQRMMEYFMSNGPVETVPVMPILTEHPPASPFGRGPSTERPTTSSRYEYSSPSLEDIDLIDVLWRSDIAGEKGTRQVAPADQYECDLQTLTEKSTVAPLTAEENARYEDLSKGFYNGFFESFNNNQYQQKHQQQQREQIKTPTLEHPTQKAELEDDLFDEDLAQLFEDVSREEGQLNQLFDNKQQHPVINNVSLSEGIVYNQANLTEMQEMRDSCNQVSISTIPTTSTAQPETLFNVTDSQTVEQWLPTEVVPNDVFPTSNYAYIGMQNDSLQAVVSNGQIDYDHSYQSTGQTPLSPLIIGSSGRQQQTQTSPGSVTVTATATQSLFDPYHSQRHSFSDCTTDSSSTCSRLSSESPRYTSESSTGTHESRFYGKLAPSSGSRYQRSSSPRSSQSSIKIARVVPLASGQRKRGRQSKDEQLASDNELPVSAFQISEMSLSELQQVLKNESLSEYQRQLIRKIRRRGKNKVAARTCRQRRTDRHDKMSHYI

[11] = target: Heat shock protein HSP 90-alpha (Homo sapiens, UniProt P07900); type: functional, organism-based
[12] = target: T4, Zinc finger protein mex-5 (Caenorhabditis elegans, UniProt Q9XUB2); assay: potency of MEX-5 RNA-binding blockers – biochemical, C. elegans, fluorescence polarization, dose response (AID 1960)
T4 sequence (Q9XUB2 whole entry): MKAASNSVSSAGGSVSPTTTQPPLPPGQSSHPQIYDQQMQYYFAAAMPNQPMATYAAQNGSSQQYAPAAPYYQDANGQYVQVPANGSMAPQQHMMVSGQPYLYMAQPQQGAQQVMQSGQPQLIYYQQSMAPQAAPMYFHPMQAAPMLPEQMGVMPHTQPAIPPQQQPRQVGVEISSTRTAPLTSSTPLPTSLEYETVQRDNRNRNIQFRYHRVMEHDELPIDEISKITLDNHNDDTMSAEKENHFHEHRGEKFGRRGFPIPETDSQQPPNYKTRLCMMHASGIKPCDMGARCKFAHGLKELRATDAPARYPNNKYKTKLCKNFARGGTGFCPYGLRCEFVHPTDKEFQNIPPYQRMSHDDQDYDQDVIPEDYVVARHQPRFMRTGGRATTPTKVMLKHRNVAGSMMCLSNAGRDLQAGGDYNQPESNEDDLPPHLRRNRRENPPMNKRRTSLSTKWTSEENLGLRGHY

[13] = target: T5, RNA-binding protein pos-1 (Caenorhabditis elegans, UniProt G5EF15); assay: disruptors of C. elegans POS-1 RNA interaction – biochemical, fluorescence polarization, dose response (AID 1964);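 also: purified POS-1 fused to maltose binding protein made in E. coli; potency of compounds blocking POS-1 binding to fluorescent RNA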
T5 sequence (G5EF15 whole entry): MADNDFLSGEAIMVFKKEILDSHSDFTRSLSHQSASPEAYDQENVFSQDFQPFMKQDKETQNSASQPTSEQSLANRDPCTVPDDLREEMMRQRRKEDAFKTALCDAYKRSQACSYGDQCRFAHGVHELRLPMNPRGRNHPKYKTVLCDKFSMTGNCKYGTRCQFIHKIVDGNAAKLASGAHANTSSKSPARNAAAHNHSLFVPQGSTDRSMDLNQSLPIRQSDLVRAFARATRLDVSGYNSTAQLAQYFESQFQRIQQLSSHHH

[14] = reduction of Shn3 3'UTR-driven luciferase in osteoblasts – cell-based, Clone20 osteoblasts, firefly luciferase, cherry-picked, dose response (AID 624132); type: functional;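 also: firefly luciferase luminescence from reporter carrying the Shn3 3'UTR in osteoblasts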
Protein Wnt-3a = Protein Wnt-3a (Mus musculus, UniProt P27467); assay: antagonism of Wnt3a pathway luciferase reporter – Wnt-LIGHT cells, luminescence, selectivity assay for Gli-SUFU antagonist project, dose response (AID 651570); type: functional; conditions: read-out: IC50_Mean;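 also: Wnt-LIGHT reporter cells stimulated with conditioned medium from Wnt3a-producing cells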
Protein Wnt-3a, sequence (P27467 whole entry): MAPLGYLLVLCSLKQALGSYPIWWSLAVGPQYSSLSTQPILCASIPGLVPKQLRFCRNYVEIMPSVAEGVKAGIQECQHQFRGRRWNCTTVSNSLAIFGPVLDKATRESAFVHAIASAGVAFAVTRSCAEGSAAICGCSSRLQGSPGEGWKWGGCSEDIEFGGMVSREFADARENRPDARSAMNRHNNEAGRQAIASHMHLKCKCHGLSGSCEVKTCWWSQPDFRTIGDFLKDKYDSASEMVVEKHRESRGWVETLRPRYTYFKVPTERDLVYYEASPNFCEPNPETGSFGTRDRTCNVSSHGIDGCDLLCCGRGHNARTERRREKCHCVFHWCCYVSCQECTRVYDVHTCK

[15] = non-specific 3'UTR reporter inhibition in Clone20-Shn3RL – cell-based, Renilla luciferase, cherry-picked, counter-screen for Shn3 inhibitor project, dose response (AID 624133); type: functional
[16] = loss of viability in HepG2 cells – cell-based, CellTiter-Glo, cherry-picked, cytotoxicity control for Shn3 inhibitor project, dose response (AID 624134); type: functional
INS1 = assay: INS-1E survival protection against cytokine death – cell-based, luminescence, retest, dose response (AID 449756); type: functional; conditions: Rattus norvegicus;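 also: cell death triggered by IL-1 beta plus TNF-alpha plus IFN-gamma mixture; protective hits raise ATP signal compared with cytokine alone wells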
[17] = luciferase reporter signal suppression in cells – H4 neuroglioma cells, luminescence, dose response (AID 1990); type: functional, cell-based
[18] = Luminescence Cell-Based Dose Retest to Confirm Inhibitors of Cancer Stem Cells. [Related pubchem assays (depositor defined):AID2717, AID2721]; type: functional; conditions: Homo sapiens
[19] = alpha-synuclein stem-loop luciferase translation blockers – H4 neuroglioma cells, luminescence, confirmation (AID 1988); type: functional, cell-based
[20] = Luminescence Cell-Based Dose Response HTS to Identify Inhibitors of 5'UTR Stem-Loop Driven Prion Protein mRNA Translation in H4 Neuroglioblastoma Cells. [Related pubchem assays: 1827 (Project Summary), 1813 (Primary HTS)]; type: functional

Cc1ccc([N+](=O)[O-])cc1NC(=O)CCc1ccccc1
IC50 (Fatty acid synthase [1]): 17.5 µM (active) | IC50 (Fatty acid synthase [2]): 14 µM (active)

C/C(=N\NC(=O)c1cc2ccccc2cc1O)c1ccc(C)o1
CC50 [3]: 16 µM (active) | IC50 (cells): 6.26 µM (active) | CC50 (Vero): 32 µM (active) | CC50 [4]: 22.7 µM (active) | CC50 [5]: 21.9 µM (active) | CC50 [6]: > 20 µM (active)

COc1ccc(OCC(=O)Nc2ccccc2N2CCCCC2)cc1
IC50 [7]: > 80 µM (inactive) | AC50 [8]: 33.4 µM (active)

O=C(Cc1cccs1)Nc1ccc(S(=O)(=O)N2CCCC2)cc1
IC50 [9]: 5.04 µM (active) | IC50 [10]: 50 µM (inactive)

COC(=O)NC1C(C)OC(OC2C/C=C(/C)C3C=CC4C(OC5CC(OC6CC(O)C(OC7CC(O)C(OC)C(C)O7)C(C)O6)C(O)C(C)O5)C(C)CC(C)C4C3(C)C(=O)C3=C(O)C4(CC(C)C(CO)=CC4/C=C\2C)OC3=O)CC1(C)[N+](=O)[O-] (stereo unspecified)
GI50 (SN12K1): 6.21 µM (inactive) | GI50 (P388): 3.55 µM (inactive) | GI50 (P388/ADR): 5.56 µM (inactive)

CCN1C(=O)/C(=C/C=C2\C=CN(CC)c3ccccc32)SC1=S
CC50 (Vero): > 40 µM (active)

COC(=O)c1ccc(CSc2nc3ccccc3o2)cc1
IC50 (Protein skinhead-1): 41.7 µM (active)

S=P1(Sc2ccccc2)Oc2ccc3ccccc3c2-c2c(ccc3ccccc23)O1
GI50 (SN12K1): > 100 µM (inactive) | GI50 (P388): > 100 µM (inactive) | GI50 (P388/ADR): > 100 µM (inactive)

C=CCn1c(C)cc(C(=O)CSc2nc(O)c3ccccc3n2)c1C
AC50 [11]: 2.6 µM (active)

Nc1nc(N)c2cc(CNc3ccc(C(=O)NC(CC(=O)O)C(=O)O)c(Cl)c3)ccc2n1 (stereo unspecified)
GI50 (SN12K1): 0.014 µM (active) | GI50 (P388): < 0.01 µM (active) | GI50 (P388/ADR): < 0.01 µM (active)

CCCC[C@@H](C)C[C@@H](C)C(=O)N(C)[C@@H](CC(C)C)C(=O)N[C@H](C(=O)N(C)[C@H](C(=O)N1C[C@@H](O)C[C@H]1C(=O)N1C(=O)C=C[C@@H]1C)C(C)C)C(C)OC(C)=O (stereo partly specified)
IC50 [7]: 18.6 µM (active)

CCCCN1C(=O)/C(=C/C=C2\Oc3ccccc3N2CC)SC1=S
EC50 [12]: > 300 µM (not active) | AC50 [11]: 171 µM (active) | EC50 [13]: 48.2 µM (active)

O=C(Cc1ccc(Cl)cc1Cl)Nc1ccncc1
AC50 [14]: 2.56 µM (active) | IC50 (Protein Wnt-3a): 3.6 µM (active) | AC50 [15]: 6.34 µM (active) | AC50 [8]: 9.95 µM (active) | AC50 [16]: 42.9 µM (active)

Cc1c(C(C)C)c(=O)n(-c2ccc(S(=O)(=O)NCc3ccccc3)cc2)n1C
AC50 (INS1): 2.71 µM (active) | AC50 [14]: 1.18 µM (active) | IC50 (Protein Wnt-3a): 5.02 µM (active) | AC50 [15]: 1.96 µM (active) | AC50 [16]: 2.48 µM (active)

COc1cc(C(=O)Nc2ccc3c(c2)CCN3C(C)=O)cc(OC)c1OC
IC50 [7]: > 80 µM (inactive)

Cc1ccc(/C=C/c2nc3ccccc3[nH]2)o1
CC50 (Vero): > 40 µM (active)

O=C(O)c1ccc(S(=O)(=O)c2ccccc2)cc1
IC50 (Protein skinhead-1): > 100 µM (inactive)

Cn1c(=O)c2c(nc(NCCOc3ccc(C(C)(C)C)cc3)n2C)n(C)c1=O
IC50 (Protein Wnt-3a): 1.2 µM (active)

O=[N+]([O-])c1ccc(C(O)C(CO)N=C(S)Nc2ccccc2)cc1 (stereo unspecified)
IC50 (Fatty acid synthase [1]): 24.8 µM (inactive) | IC50 (Fatty acid synthase [2]): 20.8 µM (inactive)

O=S(=O)(O)c1cc(S(=O)(=O)O)c2cc(/N=N/c3ccc(/N=N/c4ccc(/C=C/c5ccc(/N=[N+](/[O-])c6ccc(/C=C/c7ccc(/N=N/c8ccc(/N=N/c9ccc%10cc(S(=O)(=O)O)cc(S(=O)(=O)O)c%10c9)cc8)cc7S(=O)(=O)O)c(S(=O)(=O)O)c6)cc5S(=O)(=O)O)c(S(=O)(=O)O)c4)cc3)ccc2c1
GI50 (SN12K1): > 95.1 µM (inactive) | GI50 (P388): 14.7 µM (inactive)

O=NN(CCCl)C(=O)N[C@H]1CC[C@H](CC(=O)O)CC1
GI50 (SN12K1): 69 µM (inactive) | GI50 (P388): 3.73 µM (inactive) | GI50 (P388/ADR): 3.97 µM (inactive)

Cc1cc(C)c(C(=O)COC(=O)c2cc([N+](=O)[O-])ccc2NCCO)cc1C
IC50 (Fatty acid synthase [1]): 13.3 µM (active) | IC50 (Fatty acid synthase [2]): 8.07 µM (active)

Cc1ccc(O)c(NC(=O)c2cc([N+](=O)[O-])ccc2Cl)c1
IC50 (Fatty acid synthase [1]): 15.8 µM (active) | IC50 (Fatty acid synthase [2]): 13.4 µM (active)

O=C(NC(Cc1ccc(Br)cc1)C(=O)O)c1ccc(I)cc1 (stereo unspecified)
GI50 (SN12K1): > 100 µM (inactive) | GI50 (P388): > 80.9 µM (inactive) | GI50 (P388/ADR): > 66.1 µM (inactive)

O=C1CC(c2cc(Br)ccc2F)c2cc3c(cc2N1)CCC3 (stereo unspecified)
EC50 [17]: 7.6 µM (active) | IC50 [7]: > 80 µM (inactive) | AC50 [18]: < 160 nM (active) | EC50 [19]: 1.48 µM (inconclusive) | EC50 [20]: 2.01 µM (active)
